Experimental data from patent publication US20220016092A1, “METHODS FOR TREATING SYMPTOMS AND DISORDERS ASSOCIATED WITH LYSOSOMAL STORAGE DISEASES” (GENZYME CORPORATION, priority 2019, published 2022).
Where “and” joins values, the source holds several entries; their conditions need not be identical. Identical values can stand only once. Like-named read-outs stand apart in the source and are kept apart here.

How the values were obtained:
Assay type in all cases: in vivo, human
[1] = system: glucosylceramide (GL-1) and glucosylsphingosine (lyso-GL1) in CSF and plasma; test: Clinical study in GD-3 patients: GL-1 and lyso-GL-1 in CSF and plasma; settings: 15 mg/day + imiglucerase; for GL-1 in CSF, percent change from baseline, Mean (n = 4) / Lyso-GL1 in CSF, percent change from baseline, Mean (n = 4): excludes Patient 5
Protocol: During the study patients were evaluated for safety and tolerability, CSF and plasma biomarkers (glucosylceramide, GL-1; glucosylsphingosine, lyso-GL1), pharmacokinetics, markers for systemic disease (spleen and liver volume measured by magnetic resonance imaging (MRI), platelet count, hemoglobin levels), indicia of interstitial lung disease (high resolution pulmonary computed tomography (CT)), and horizontal saccadic eye movement.
At baseline, the mean (±SD) GL-1 concentration in CSF was 7.1±2.8 ng/mL (range 4.4-11.1 ng/mL), while the mean (±SD) lyso-GL-1 concentration in CSF was 39.3±22.9 pg/mL (range 20.1-67.6 pg/mL). For comparison, the healthy GL-1 concentration in CSF is 4.5-5.9 ng/mL, and the healthy level of lyso-GL-1 in CSF is less than 5.0 pg/mL. […]

[2] = Study 1 Part 1: ascending single-dose pharmacokinetics in healthy volunteers; settings: healthy men; for Tmax: male, human, plasma, read-out: tmax, median
Description: Study 1 was a 2-part single-center trial in healthy adult male volunteers.
Part 1 of the study enrolled and randomized 55 healthy men (placebo, n=14; 2-, 5-, 15, 25-, 50, and 100-mg doses, n=6 each; 150-mg dose, n=5). Eight healthy men participated in Part 2. […]

[3] = system: chitotriosidase (CHITO), GM3, GPNMB, ceramide; test: Clinical study in GD-3 patients: exploratory biomarkers
Protocol: Four exploratory biomarkers were quantified in plasma, serum and/or CSF of GD3 patients at week 4 and week 26: chitotriosidase (CHITO; an enzyme known to be elevated in GD patients) was measured in CSF and serum; GM3 (a glycosphingolipid marker known to be elevated in GD patients) was measured in CSF and plasma; and glycoprotein nonmetastatic melanoma protein B (GPNMB; reportedly a biomarker of neuropathic GD3) was measured in CSF. The results are shown in the table below as percent change from baseline at week 4 and week 26 for each parameter:
In addition, exploratory biomarkers were quantified in CSF of GD3 patients: ceramide (the precursor of GL-1), chitotriosidase (CHITO), GM3, and GPNMB.

[4] = 4 weeks, individual Patients 1-5
[5] = 26 weeks, individual Patients 1-5 (Patient 5 reduced exposure)
[6] = single oral dose 2 mg, fasted (N = 6)
[7] = single oral dose 5 mg, fasted (N = 6)
[8] = single oral dose 15 mg, fasted (N = 6)
[9] = single oral dose 25 mg, fasted (N = 6)
[10] = single oral dose 50 mg, fasted (N = 6)
[11] = single oral dose 100 mg, fasted (N = 6)
[12] = single oral dose 150 mg, fasted (N = 5)
[13] = 15 mg/day + imiglucerase, Week 4, individual Patients 1-5
[14] = 15 mg/day + imiglucerase, Week 26, individual Patients 1-5

Structure (SMILES): CC(C)(NC(=O)O[C@@H]1CN2CCC1CC2)c1csc(-c2ccc(F)cc2)n1 [Compound 2, (S)-quinuclidin-3-yl 2-(2-(4-fluorophenyl)thiazol-4-yl)propan-2-ylcarbamate]
- GL-1 in CSF, percent change from baseline, Mean (n = 4) ([1]; 4 weeks): −64%
- Lyso-GL1 in CSF, percent change from baseline, Mean (n = 4) ([1]; 4 weeks): −32%
- GL-1 in CSF, percent change from baseline [1, 4]: −86% and −55% and −53% and −62% and −36%
- Lyso-GL1 in CSF, percent change from baseline [1, 4]: −38% and −16% and −34% and −39% and −11%
- GL-1 in CSF, percent change from baseline, Mean (n = 4) ([1]; 26 weeks): −75%
- Lyso-GL1 in CSF, percent change from baseline, Mean (n = 4) ([1]; 26 weeks): −48%
- GL-1 in CSF, percent change from baseline [1, 5]: −86% and −78% (2×) and −58% and +4%
- Lyso-GL1 in CSF, percent change from baseline [1, 5]: −52% and −42% and −41% and −57% and +94%
- CL/F, Geometric mean [2, 6]: 6.3 L/h
- CL/F, Mean [2, 6]: 6.43 L/h
- CL/F, Geometric mean [2, 7]: 5.8 L/h
- CL/F, Mean [2, 7]: 5.86 L/h
- CL/F, Geometric mean [2, 8]: 5.6 L/h
- CL/F, Mean [2, 8]: 5.85 L/h
- Cmax, Geometric mean [2, 8]: 50.7 ng/mL
- CL/F, Geometric mean [2, 9]: 5.0 L/h
- CL/F, Mean [2, 9]: 5.18 L/h
- CL/F, Geometric mean [2, 10]: 5.5 L/h
- CL/F, Mean [2, 10]: 5.75 L/h
- CL/F, Geometric mean [2, 11]: 5.3 L/h
- CL/F, Mean [2, 11]: 5.38 L/h
- CL/F, Geometric mean [2, 12]: 5.6 L/h
- CL/F, Mean [2, 12]: 5.80 L/h
- Tmax [2, 9]: 5 h
- Tmax [2, 11]: 3 h
- GM3 in CSF ([3]; 15 mg/day + imiglucerase, 4, 26 and 52 weeks, the four of six patients measurable at baseline): undetectable
- CHITO in CSF, percent change from baseline [3, 13]: −5% and +11% and +9% and −6% (2×)
- CHITO in Serum, percent change from baseline [3, 13]: −11% and +8% and −7% and −12% and −1%
- GM3 in CSF, percent change from baseline [3, 13]: −51% and −59% (2×) and 0%
- GM3 in Plasma, percent change from baseline [3, 13]: −70% and −63% and −65% and −62% and −47%
- GPNMB in CSF, percent change from baseline [3, 13]: −63% and +30% and +9% and −6% and −2%
- CHITO in CSF, percent change from baseline [3, 14]: −10% and −11% and +20% and −1% and +68%
- CHITO in Serum, percent change from baseline [3, 14]: −43% and −55% and −1% and +98% and −11%
- GM3 in CSF, percent change from baseline [3, 14]: −51% and 0% (2×) and −59% (2×)
- GM3 in Plasma, percent change from baseline [3, 14]: −86% and −69% and −74% and −72% and +10%
- GPNMB in CSF, percent change from baseline [3, 14]: −14% and 0% and +45% and +10% and −8%
- CSF concentrations of ceramide, CHITO or GPNMB ([3]; 15 mg/day + imiglucerase, after 52 weeks): no significant changes
